Where a name gives a salt, the structure may show the parent alone.
Biological target: T1, AR (Homo sapiens, UniProt P10275)
T1 construct: endogenous in cells; host or cells: VCaP cells
T1 sequence (P10275 1-920): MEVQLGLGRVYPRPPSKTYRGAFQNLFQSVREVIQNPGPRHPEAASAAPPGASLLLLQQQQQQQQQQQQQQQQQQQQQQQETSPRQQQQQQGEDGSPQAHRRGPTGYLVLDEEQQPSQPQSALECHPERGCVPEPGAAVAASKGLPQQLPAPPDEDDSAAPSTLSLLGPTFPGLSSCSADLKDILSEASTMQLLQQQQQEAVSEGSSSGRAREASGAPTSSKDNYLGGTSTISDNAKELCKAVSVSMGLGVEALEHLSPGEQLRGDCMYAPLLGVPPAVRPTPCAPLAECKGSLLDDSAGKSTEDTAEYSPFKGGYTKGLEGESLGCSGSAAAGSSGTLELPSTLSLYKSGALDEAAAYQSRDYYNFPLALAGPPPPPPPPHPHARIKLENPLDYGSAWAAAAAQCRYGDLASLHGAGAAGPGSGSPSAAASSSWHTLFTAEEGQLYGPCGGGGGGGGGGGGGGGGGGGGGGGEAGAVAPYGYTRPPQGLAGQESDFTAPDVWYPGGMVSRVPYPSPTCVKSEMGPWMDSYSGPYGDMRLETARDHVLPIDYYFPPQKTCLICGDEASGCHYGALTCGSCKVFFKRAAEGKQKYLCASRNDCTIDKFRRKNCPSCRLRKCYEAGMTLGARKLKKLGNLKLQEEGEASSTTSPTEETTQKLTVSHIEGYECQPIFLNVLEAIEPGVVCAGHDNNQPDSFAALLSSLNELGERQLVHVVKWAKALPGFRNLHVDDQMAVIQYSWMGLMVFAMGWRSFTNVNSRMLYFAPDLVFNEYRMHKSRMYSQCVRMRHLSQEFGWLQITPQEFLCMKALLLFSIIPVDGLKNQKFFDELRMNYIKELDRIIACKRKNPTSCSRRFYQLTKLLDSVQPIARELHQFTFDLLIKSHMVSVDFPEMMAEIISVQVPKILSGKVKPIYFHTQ
Assay: VCAP AR Degradation Assay
Type: cell-based
Details: VCaP cells, 24 h, AR ELISA; for DC50: concentration of compound when AR level = 50% of DMSO control (50% AR degradation); for Y: lowest measured AR level normalized to DMSO control (AR degradation efficiency)
Method: VCAP AR Degradation Assay. Test compounds were pre-dispensed into a Corning CellBind 96-well clear bottom plate (Cat #3300) using an acoustic dispenser to make a 10-point concentration series at 1:3 dilution for each compound. The final top concentration of each compound was 5 μM. DMSO at a final concentration of 0.1% was used as a control. VCaP cells cultured in DMEM with 8% fetal bovine serum (FBS) were seeded at 50K cells per well in a 200 μL volume into the compound plate and incubated at 37° C. in a CO2 incubator for 24 h. The medium was carefully removed from the cells and the plate was placed on ice. […] ice-cold 1× cell lysis buffer from Cell Signaling Technologies (Cat #9803) was added to each well of the cells and the plate was incubated at 4° C. on a shaker for 1 h. Fifteen μL of cell lysate was used for AR ELISA detection using a PathScan Total Sandwich AR ELISA kit (Cell Signaling Technology, Cat #12580). AR levels in compound-treated wells were normalized to that of DMSO control and expressed as percent of control (PoC) (y). A Four Parameter Logistic Model (Sigmoidal Dose-Response Model) was used to determine the compound's DC50, and EC50, using the following equation: y=(A+((B−A)/(1+((C/x)^D)))) • A=YMin (lowest AR level normalized to DMSO control in response to compound treatment, as determined by curve fit) • B=YMax (maximum AR level as determined by curve fit) • C=EC50 • D=Hill Slope • x=compound concentration • EC50=the concentration of compound when y=[…] • DC50=the concentration of the compound when y=50% of DMSO control (50% AR degradation) • y=AR protein level normalized to DMSO control
The lowest measured AR level normalized to DMSO control in response to compound treatment, termed Y value, was used to characterize the compound-mediated AR degradation efficiency.

SMILES	DC50	Y	DC50 (hydrochloride)
C[C@@H]1CN(CCC[C@H]2CC[C@H](N3C(=S)N(c4cnc(C#N)c(Cl)c4)C(=O)C3(C)C)CC2)C[C@H](C)N1CC(=O)Nc1cccc2c(N3CCC(=O)NC3=O)nn(C)c12 [Cmpd 12, 2-((2R,6S)-4-(3-(trans-4-(3-(5-Chloro-6-cyanopyridin-3-yl)-5,5-dimethyl-4-oxo-2-thioxoimidazolidin-1-yl)cyclohexyl)propyl)-2,6-dimethylpiperazin-1-yl)-N-(3-(2,4-dioxotetrahydropyrimidin-1(2H)-yl)-1-methyl-1H-indazol-7-yl)acetamide hydrochloride]	2 to 10 nM	** (20%<Y≤%)	
C[C@@H]1C[C@@H](CCO[C@H]2CC[C@H](N3C(=S)N(c4ccc(C#N)c(C(F)(F)F)c4)C(=O)C3(C)C)CC2)C[C@H](C)N1CC(=O)Nc1cccc2c(N3CCC(=O)NC3=O)nn(C)c12 [Cmpd 13, 2-((2R,4s,6S)-4-(2-((trans-4-(3-(4-Cyano-3-(trifluoromethyl)phenyl)-5,5-dimethyl-4-oxo-2-thioxoimidazolidin-1-yl)cyclohexyl)oxy)ethyl)-2,6-dimethylpiperidin-1-yl)-N-(3-(2,4-dioxotetrahydropyrimidin-1(2H)-yl)-1-methyl-1H-indazol-7-yl)acetamide hydrochloride]	2 to 10 nM	* (0<Y≤20%)	
C[C@@H]1C[C@H](CCO[C@H]2CC[C@H](N3C(=S)N(c4ccc(C#N)c(C(F)(F)F)c4)C(=O)C3(C)C)CC2)C[C@H](C)N1CC(=O)Nc1cccc2c(N3CCC(=O)NC3=O)nn(C)c12 [Cmpd 14, 2-((2R,4r,6S)-4-(2-((trans-4-(3-(4-Cyano-3-(trifluoromethyl)phenyl)-5,5-dimethyl-4-oxo-2-thioxoimidazolidin-1-yl)cyclohexyl)oxy)ethyl)-2,6-dimethylpiperidin-1-yl)-N-(3-(2,4-dioxotetrahydropyrimidin-1(2H)-yl)-1-methyl-1H-indazol-7-yl)acetamide hydrochloride]	2 to 10 nM	* (0<Y≤20%)	
C[C@@H]1CN(CCO[C@H]2CC[C@H](N3C(=S)N(c4ccc(C#N)c(C(F)(F)F)c4)C(=O)C3(C)C)CC2)C[C@H](C)N1CCOc1cccc2c(N3CCC(=O)NC3=O)nn(C)c12 [Cmpd 15, 4-(3-(trans-4-(2-((3R,5S)-4-(2-((3-(2,4-Dioxotetrahydropyrimidin-1(2H)-yl)-1-methyl-1H-indazol-7-yl)oxy)ethyl)-3,5-dimethylpiperazin-1-yl)ethoxy)cyclohexyl)-4,4-dimethyl-5-oxo-2-thioxoimidazolidin-1-yl)-2-(trifluoromethyl)benzonitrile hydrochloride]	100 to 10000 nM	** (20%<Y≤%)	
C[C@@H]1CN(CCO[C@H]2CC[C@H](N3C(=S)N(c4ccc(C#N)c(C(F)(F)F)c4)C(=O)C3(C)C)CC2)C[C@H](C)N1CCCOc1cccc2c(N3CCC(=O)NC3=O)nn(C)c12 [Cmpd 16, 4-(3-(trans-4-(2-((3S,5R)-4-(3-((3-(2,4-dioxotetrahydropyrimidin-1(2H)-yl)-1-methyl-1H-indazol-7-yl)oxy)propyl)-3,5-dimethylpiperazin-1-yl)ethoxy)cyclohexyl)-4,4-dimethyl-5-oxo-2-thioxoimidazolidin-1-yl)-2-(trifluoromethyl)benzonitrile hydrochloride]	100 to 10000 nM	*** (30%<Y<60%)	
C[C@@H]1CN(CCCC[C@H]2CC[C@H](N3C(=S)N(c4ccc(C#N)c(C(F)(F)F)c4)C(=O)C3(C)C)CC2)C[C@H](C)N1CC(=O)Nc1cccc2c(N3CCC(=O)NC3=O)nn(C)c12 [Cmpd 17, 2-((2R,6S)-4-(4-(trans-4-(3-(4-Cyano-3-(trifluoromethyl)phenyl)-5,5-dimethyl-4-oxo-2-thioxoimidazolidin-1-yl)cyclohexyl)butyl)-2,6-dimethylpiperazin-1-yl)-N-(3-(2,4-dioxotetrahydropyrimidin-1(2H)-yl)-1-methyl-1H-indazol-7-yl)acetamide hydrochloride]	2 to 10 nM	** (20%<Y≤%)	
C[C@@H]1CN(CCO[C@H]2CC[C@H](N3C(=S)N(c4ccc(C#N)c(C(F)(F)F)c4)C(=O)C3(C)C)CC2)C[C@H](C)N1CCNc1cccc2c(N3CCC(=O)NC3=O)nn(C)c12 [Cmpd 18, 4-(3-(trans-4-(2-((3R,5S)-4-(2-((3-(2,4-Dioxotetrahydropyrimidin-1(2H)-yl)-1-methyl-1H-indazol-7-yl)amino)ethyl)-3,5-dimethylpiperazin-1-yl)ethoxy)cyclohexyl)-4,4-dimethyl-5-oxo-2-thioxoimidazolidin-1-yl)-2-(trifluoromethyl)benzonitrile hydrochloride]		*** (30%<Y<60%)	10 to 100 nM
Cn1nc(N2CCC(=O)NC2=O)c2cccc(NC(=O)CN3CCN(CCO[C@H]4CC[C@H](N5C(=S)N(c6ccc(C#N)c(C(F)(F)F)c6)C(=O)C5(C)C)CC4)C[C@@H]3C(F)(F)F)c21 [Cmpd 20, 2-((R)-4-(2-((trans-4-(3-(4-Cyano-3-(trifluoromethyl)phenyl)-5,5-dimethyl-4-oxo-2-thioxoimidazolidin-1-yl)cyclohexyl)oxy)ethyl)-2-(trifluoromethyl)piperazin-1-yl)-N-(3-(2,4-dioxotetrahydropyrimidin-1(2H)-yl)-1-methyl-1H-indazol-7-yl)acetamide hydrochloride]	≤ 2 nM	** (20%<Y≤%)	
C[C@@H]1CN(CCO[C@H]2CC[C@H](N3C(=S)N(c4ccc(C#N)c(S(F)(F)(F)(F)F)c4)C(=O)C3(C)C)CC2)C[C@H](C)N1CC(=O)Nc1cccc2c(N3CCC(=O)NC3=O)nn(C)c12 [Cmpd 21, 2-((2S,6R)-4-(2-((trans-4-(3-(4-Cyano-3-(pentafluoro-λ^6-sulfaneyl)phenyl)-5,5-dimethyl-4-oxo-2-thioxoimidazolidin-1-yl)cyclohexyl)oxy)ethyl)-2,6-dimethylpiperazin-1-yl)-N-(3-(2,4-dioxotetrahydropyrimidin-1(2H)-yl)-1-methyl-1H-indazol-7-yl)acetamide hydrochloride]	100 to 10000 nM	*** (30%<Y<60%)	
Cn1nc(N2CCC(=O)NC2=O)c2cccc(NC(=O)CN3CCN(CCC[C@H]4CC[C@H](N5C(=S)N(c6cnc(C#N)c(C(F)(F)F)c6)C(=O)C5(C)C)CC4)C[C@@H]3C(F)(F)F)c21 [Cmpd 22, 2-((R)-4-(3-(trans)-4-(3-(6-cyano-5-(trifluoromethyl)pyridin-3-yl)-5,5-dimethyl-4-oxo-2-thioxoimidazolidin-1-yl)cyclohexyl)propyl)-2-(trifluoromethyl)piperazin-1-yl)-N-(3-(2,4-dioxotetrahydropyrimidin-1(2H)-yl)-1-methyl-1H-indazol-7-yl)acetamide hydrochloride]	2 to 10 nM	* (0<Y≤20%)	
Cn1nc(N2CCC(=O)NC2=O)c2cccc(NC(=O)CN3CCN(CCC[C@H]4CC[C@H](N5C(=S)N(c6ccc(C#N)c(C(F)(F)F)c6)C(=O)C5(C)C)CC4)C[C@@H]3C(F)(F)F)c21 [Cmpd 23, 2-((R)-4-(3-(trans-4-(3-(4-cyano-3-(trifluoromethyl)phenyl)-5,5-dimethyl-4-oxo-2-thioxoimidazolidin-1-yl)cyclohexyl)propyl)-2-(trifluoromethyl)piperazin-1-yl)-N-(3-(2,4-dioxotetrahydropyrimidin-1(2H)-yl)-1-methyl-1H-indazol-7-yl)acetamide]	2 to 10 nM	** (20%<Y≤%)	
